From US11795173B1, “Substituted pyridines as PARP1 inhibitors” (Xinthera, Inc., priority 2022, dated 2023)

Legend:
DLD-1 BRCA2(−/−) cells = test: Cell growth inhibition assay (CellTiter-Glo), DLD-1 BRCA2(−/−); format: cell-based; details: Homo sapiens, DLD-1, 168 h; cell viability, CellTiter Glo 2.0, 7 days
Description: The objective of this study is to evaluate the effect of compound disclosed herein on cell proliferation through the cell viability assay in DLD-1 BRCA2(−/−) and parental isogenic pair and MDA-MB-436 (mutated BRCA1) cell lines.
DLD-1 BRCA2(−/−) and parental isogenic pair were cultured in RPMI 1640 supplemented with 10% fetal bovine serum (FBS), and MDA-MB-436 cells were cultured in DMEM supplemented with 10% FBS. Both are culture at 37° C. with 5% CO2. […] The cells were seeded into the plate in the density of 50 cells/well (DLD-1 parental), 200 cells/well (DLD-1 BRCA2−/−), or 500 cells/well (MDA-MB-436). After a short spun, the cells were cultured in a well moisturized incubator at 37° C. with 5% CO2 for 7 days without disturbance. The cell viability was measured by CellTiter Glo 2.0 assay kit (Promega, G9243), and growth inhibition rate was calculated and plotted against final compound concentration, and the data were fitted in Xfit to generate IC50.

[1] = system: MDA-MB-436 (mutated BRCA1) cells; test: Cell growth inhibition assay (CellTiter-Glo), MDA-MB-436; format: cell-based; details: Homo sapiens, MDA-MB-436, 168 h; cell viability, CellTiter Glo 2.0, 7 days
From the text: (§1) The objective of this study is to evaluate the effect of compound disclosed herein on cell proliferation through the cell viability assay in DLD-1 BRCA2(−/−) and parental isogenic pair and MDA-MB-436 (mutated BRCA1) cell lines. The CellTiter-Glo (CTG) based cell viability assay is designed to determine the number of viable cells in the culture because of compound effect, by quantifying ATP, which indicates the presence of metabolically active cells.
(§2) DLD-1 BRCA2(−/−) and parental isogenic pair were cultured in RPMI 1640 supplemented with 10% fetal bovine serum (FBS), and MDA-MB-436 cells were cultured in DMEM supplemented with 10% FBS. Both are culture at 37° C. with 5% CO2. Invention compounds were distributed to the 384 well plate (Corning, 3764) using Echo acoustic liquid handler to form a 1:3 serially diluted final concentration with top dose of 10 or 30 μM. The cells were seeded into the plate in the density of 50 cells/well (DLD-1 parental), 200 cells/well (DLD-1 BRCA2−/−), or 500 cells/well (MDA-MB-436). After a short spun, the cells were cultured in a well moisturized incubator at 37° C. with 5% CO2 for 7 days without disturbance. The cell viability was measured by CellTiter Glo 2.0 assay kit (Promega, G9243), and growth inhibition rate was calculated and plotted against final compound concentration, and the data were fitted in Xfit to generate IC50.

MDR1 = MDR1 (Homo sapiens (Human), UniProt P08183); test: In vitro human transporter efflux, MDCKII cells expressing MDR1; format: in vitro ADME; details: for Papp A→B at 2 h, 10 μM: MDCK-MDR1, pH 7.4, apical-to-basolateral, pH7.4, read-out: MDCK-MDR1 Papp AB; for Papp A→B at 2 h, 10 μM / Papp B→A at 2 h, 10 μM: 2-hour incubation; for Papp B→A at 2 h, 10 μM: MDCK-MDR1, pH 7.4, basolateral-to-apical, pH7.4, read-out: MDCK-MDR1 Papp BA; for efflux ratio at 2 h, 10 μM: MDCK-MDR1, pH 7.4, efflux ratio Papp BA/Papp AB
MDR1, sequence (P08183 whole entry): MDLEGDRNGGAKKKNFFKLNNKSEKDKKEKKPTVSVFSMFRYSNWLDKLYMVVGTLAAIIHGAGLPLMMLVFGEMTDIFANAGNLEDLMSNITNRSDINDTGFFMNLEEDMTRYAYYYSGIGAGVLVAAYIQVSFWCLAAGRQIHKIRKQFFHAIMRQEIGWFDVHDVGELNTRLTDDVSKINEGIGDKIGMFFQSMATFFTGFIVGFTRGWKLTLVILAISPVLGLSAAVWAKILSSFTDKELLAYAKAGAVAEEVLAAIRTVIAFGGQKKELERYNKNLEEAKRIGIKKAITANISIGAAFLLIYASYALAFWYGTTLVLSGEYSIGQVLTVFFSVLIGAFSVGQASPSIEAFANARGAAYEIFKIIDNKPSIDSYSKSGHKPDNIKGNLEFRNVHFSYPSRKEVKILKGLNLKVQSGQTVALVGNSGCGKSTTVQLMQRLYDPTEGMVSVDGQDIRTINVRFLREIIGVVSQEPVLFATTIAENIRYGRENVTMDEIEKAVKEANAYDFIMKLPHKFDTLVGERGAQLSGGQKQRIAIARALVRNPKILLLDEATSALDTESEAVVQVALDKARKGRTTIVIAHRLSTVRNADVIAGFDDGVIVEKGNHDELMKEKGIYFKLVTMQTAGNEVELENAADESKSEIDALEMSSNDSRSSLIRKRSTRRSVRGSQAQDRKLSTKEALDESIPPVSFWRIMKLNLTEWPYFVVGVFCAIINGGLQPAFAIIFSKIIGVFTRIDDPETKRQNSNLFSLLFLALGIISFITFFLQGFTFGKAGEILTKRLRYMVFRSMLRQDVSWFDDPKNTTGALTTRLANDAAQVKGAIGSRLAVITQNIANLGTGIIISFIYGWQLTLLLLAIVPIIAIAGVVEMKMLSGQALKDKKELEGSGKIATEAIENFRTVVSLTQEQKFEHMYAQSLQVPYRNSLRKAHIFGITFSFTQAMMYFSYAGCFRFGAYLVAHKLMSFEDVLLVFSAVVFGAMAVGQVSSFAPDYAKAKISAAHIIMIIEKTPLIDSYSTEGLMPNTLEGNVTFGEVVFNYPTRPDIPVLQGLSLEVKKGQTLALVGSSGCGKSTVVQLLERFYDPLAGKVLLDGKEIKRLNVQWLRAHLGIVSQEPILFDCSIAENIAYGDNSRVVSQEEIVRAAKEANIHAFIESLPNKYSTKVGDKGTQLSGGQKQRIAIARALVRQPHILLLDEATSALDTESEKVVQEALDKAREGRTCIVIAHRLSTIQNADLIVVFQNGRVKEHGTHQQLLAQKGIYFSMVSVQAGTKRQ
Description: (§3) Madin-Darby canine kidney (MDCKII) cells expressing either MDR1 or BCRP were seeded onto Corning HTS Transwell® 96-well polycarbonate permeable (0.4 μm pore) supports at a density of 545,000 cells/cm^2. Cells were incubated for 4-8 days prior to assay, and monolayer integrity was assessed by measuring transepithelial electrical resistance (TEER). […] The final organic solvent concentration was 0.5% (v/v). Bidirectional (apical-to-basolateral and basolateral-to-apical) flux of the test and reference compounds was determined over a 2-hour incubation at 37° C. and 5% CO2 with a relative humidity of 95%. At the end of the incubation, samples from the apical and basolateral side were taken and then precipitated with acetonitrile containing internal standard. After centrifugation at 3200×g, supernatants were diluted 1:1 (v/v) with water and subjected to analysis via HPLC-MS/MS.
(§4) Apparent permeability (Papp, ×10^−6 cm/s) was calculated for all transport assays using the following equation: […]
(§5) Efflux ratio was determined by calculating the ratio of the Papp in the basolateral-to-apical direction to the Papp in the apical-to-basolateral direction using the following equation: […]

[2] = HLM stability, predicted human hepatic clearance; format: in vitro ADME; details: well-stirred model, 1 μM, 0.5 mg/mL microsomal protein, NADPH
Description: Working stocks of individual test articles were prepared at a concentration of 100 μM by diluting 10 mM stocks prepared in DMSO 100-fold (v:v) into ACN. Thawed hepatic microsomes were suspended in 100 mM potassium phosphate buffer, pH 7.4 to a microsomal protein concentration of 0.562 mg/mL. Diluted microsomes were combined with a solution of 10 mM NADPH, and the mixture was pre-warmed to 37° C. for 8 min. Reactions were initiated by addition of the test article working stocks to achieve a final test article concentration of 1 μM. Final microsomal protein and NADPH concentrations were 0.5 mg/mL and 1 mM, respectively. Incubations containing NADPH were run in duplicate. Test article losses mediated by non-CYP mechanisms were evaluated in a parallel set of incubations run in the absence of NADPH. Incubations lacking NADPH consisted of 1 replicate per test article. Following incubation in a 37° C. water bath, aliquots of individual reactions were quenched with cold ACN containing internal standards at […], 15-, 30-, 60-, 90-, and 120-min. Precipitated protein was pelleted via refrigerated centrifugation. Supernatants were diluted into an equal volume of pure water and mixed well prior to analysis via LC-MS/MS. In vitro intrinsic clearances (CLint) in μL/min/mg were determined for each incubation from calculated in vitro half-lives determined using a standard log-linear regression approach. In vitro CLint values were scaled up using the following physiological scaling factors: 40 mg microsomal protein/g human liver and 25.7 g human liver/kg body weight.

[3] = hHEP stability, predicted human hepatic clearance; format: in vitro ADME; details: well-stirred model, 0.5×10^6 viable cells/mL
Description: Working stocks of individual test articles were prepared at concentrations of 100 μM by diluting 10 mM stocks prepared in DMSO 100-fold (v:v) into ACN/H2O (50/50, v:v). Human cryopreserved hepatocytes were thawed in a 37° C. water bath in <2 min., suspended in thawing media, and then centrifuged at 100×g for 10 min. Thawing media was aspirated, and pelleted hepatocytes were resuspended into incubation media at 1.5×10^6 cells/mL. Cell viability was determined using an Acridine Orange/Propidium Iodine stain, and hepatocytes were further diluted with incubation media to 0.5×10^6 viable cells/mL. Hepatocyte aliquots of 198 μL were added to wells of a 96-well plate, and test article incubations were initiated by the addition of 2 μL of 100 μM working stocks. Plates were incubated at 37° C. in a 5% CO2 atmosphere at 95% relative humidity on an orbital shaker at 300 rpm. Incubations were performed in duplicate. Following incubation, aliquots of individual reactions were terminated by addition of ACN containing internal standards at 0, 30-, 60-, 90-, 120-, and 240-min. Precipitated protein was pelleted via refrigerated centrifugation. Supernatants were diluted into an equal volume of pure water and mixed well prior to analysis via LC-MS/MS. In vitro intrinsic clearances (CLint) in μL/min/10^6 cells were determined for each incubation from calculated in vitro half-lives determined using a standard log-linear regression approach. In vitro CLint values were scaled up using the following physiological scaling factors: 99×10^6 cells/g human liver and 25.7 g human liver/kg body weight.

DLD-1 parental cells = test: Cell growth inhibition assay (CellTiter-Glo), DLD-1 parental; format: cell-based; details: Homo sapiens, DLD-1, 168 h; cell viability, CellTiter Glo 2.0, 7 days
From the text: as §1, §2

BCRP = BCRP (Homo sapiens (Human), UniProt Q9UNQ0); test: In vitro human transporter efflux, MDCKII cells expressing BCRP; format: in vitro ADME; details: for Papp A→B at 2 h, 10 μM: pH 7.4, apical-to-basolateral, pH7.4, read-out: BCRP Papp AB; for Papp A→B at 2 h, 10 μM / Papp B→A at 2 h, 10 μM: 2-hour incubation; for Papp B→A at 2 h, 10 μM: pH 7.4, basolateral-to-apical, pH7.4, read-out: BCRP Papp BA; for efflux ratio at 2 h, 10 μM: pH 7.4, efflux ratio Papp BA/Papp AB
BCRP, sequence (Q9UNQ0 whole entry): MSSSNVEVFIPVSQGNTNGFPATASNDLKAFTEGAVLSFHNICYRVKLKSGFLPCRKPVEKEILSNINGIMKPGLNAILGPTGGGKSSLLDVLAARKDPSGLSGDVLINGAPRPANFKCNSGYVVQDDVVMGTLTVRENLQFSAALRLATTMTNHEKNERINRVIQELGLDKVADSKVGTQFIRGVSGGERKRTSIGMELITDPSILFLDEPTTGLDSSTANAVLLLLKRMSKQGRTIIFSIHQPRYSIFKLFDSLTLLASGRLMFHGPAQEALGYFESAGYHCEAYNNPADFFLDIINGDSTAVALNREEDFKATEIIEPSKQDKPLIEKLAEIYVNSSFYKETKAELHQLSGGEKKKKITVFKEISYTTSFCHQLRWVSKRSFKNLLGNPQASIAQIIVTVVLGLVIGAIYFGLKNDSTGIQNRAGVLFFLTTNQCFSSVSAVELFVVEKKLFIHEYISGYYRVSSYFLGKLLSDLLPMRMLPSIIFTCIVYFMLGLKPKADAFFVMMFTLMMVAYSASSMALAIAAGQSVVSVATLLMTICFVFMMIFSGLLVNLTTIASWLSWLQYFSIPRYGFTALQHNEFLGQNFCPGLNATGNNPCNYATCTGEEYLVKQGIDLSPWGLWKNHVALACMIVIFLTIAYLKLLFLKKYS
Description: as §3, §4, §5

PARP1 = PARP1 (Homo sapiens (Human), UniProt P09874); test: Biochemical fluorescence polarization (FP) assay, PARPi-FL displacement, PARP1; format: binding; details: 20 nM protein, 3 nM PARPi-FL, 4 h at room temperature
PARP1, sequence (P09874 whole entry): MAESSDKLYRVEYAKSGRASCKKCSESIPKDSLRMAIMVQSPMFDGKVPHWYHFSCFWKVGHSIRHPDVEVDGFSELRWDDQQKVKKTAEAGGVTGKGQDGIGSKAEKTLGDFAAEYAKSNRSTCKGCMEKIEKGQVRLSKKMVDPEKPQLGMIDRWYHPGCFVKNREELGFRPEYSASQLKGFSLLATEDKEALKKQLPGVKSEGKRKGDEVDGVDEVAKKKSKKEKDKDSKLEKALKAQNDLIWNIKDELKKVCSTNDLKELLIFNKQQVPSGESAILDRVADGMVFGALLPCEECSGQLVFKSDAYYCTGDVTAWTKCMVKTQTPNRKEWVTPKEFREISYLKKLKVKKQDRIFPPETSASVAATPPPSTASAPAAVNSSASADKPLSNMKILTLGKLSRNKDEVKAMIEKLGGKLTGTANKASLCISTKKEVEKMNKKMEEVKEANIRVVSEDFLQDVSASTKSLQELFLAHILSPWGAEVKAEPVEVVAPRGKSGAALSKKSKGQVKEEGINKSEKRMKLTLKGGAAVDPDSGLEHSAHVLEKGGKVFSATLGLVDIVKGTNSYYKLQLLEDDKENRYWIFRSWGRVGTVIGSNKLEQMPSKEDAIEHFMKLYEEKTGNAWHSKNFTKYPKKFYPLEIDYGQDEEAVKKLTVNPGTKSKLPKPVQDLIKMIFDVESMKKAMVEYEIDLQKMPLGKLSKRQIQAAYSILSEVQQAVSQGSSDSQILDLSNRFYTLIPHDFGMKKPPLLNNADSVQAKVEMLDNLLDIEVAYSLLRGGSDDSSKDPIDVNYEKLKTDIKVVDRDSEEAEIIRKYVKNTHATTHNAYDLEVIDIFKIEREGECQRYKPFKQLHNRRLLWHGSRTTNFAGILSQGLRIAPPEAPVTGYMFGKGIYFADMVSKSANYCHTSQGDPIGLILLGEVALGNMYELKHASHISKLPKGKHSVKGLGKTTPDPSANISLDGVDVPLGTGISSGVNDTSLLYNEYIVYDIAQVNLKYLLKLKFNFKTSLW
Description: (§6) To characterize our compounds, we utilized an assay measuring the displacement of a commercially available fluorescently labeled PARP 1/2 inhibitor (PARPi-FL, Tocris Biosciences, #6461) as exemplified in assays performed in WO2014/064149 and WO2021/013735A1. The assay was performed utilizing the following method: Compounds were dissolved in DMSO an Echo550 liquid handler was utilized to make serial dilations in the desired concentration range in Optiplate-384F plates. 100% DMSO was used for the high (with protein) and low (without protein) control samples. 20 nL of compound or DMSO alone was added to individual assay plate wells. […] The PARPi-FL was then added at a final concentration of 3 nM. The assay plate is centrifuged at 1000 rpm for 1 min and incubated for 4 h at room temperature. […] XLFit (equation 201) is used to calculate a reported IC50 for each compound.

PARP2 = PARP2 (Homo sapiens (Human), UniProt Q9UGN5); test: Biochemical fluorescence polarization (FP) assay, PARPi-FL displacement, PARP2; format: binding; details: 20 nM protein, 3 nM PARPi-FL, 4 h at room temperature
PARP2, sequence (Q9UGN5 whole entry): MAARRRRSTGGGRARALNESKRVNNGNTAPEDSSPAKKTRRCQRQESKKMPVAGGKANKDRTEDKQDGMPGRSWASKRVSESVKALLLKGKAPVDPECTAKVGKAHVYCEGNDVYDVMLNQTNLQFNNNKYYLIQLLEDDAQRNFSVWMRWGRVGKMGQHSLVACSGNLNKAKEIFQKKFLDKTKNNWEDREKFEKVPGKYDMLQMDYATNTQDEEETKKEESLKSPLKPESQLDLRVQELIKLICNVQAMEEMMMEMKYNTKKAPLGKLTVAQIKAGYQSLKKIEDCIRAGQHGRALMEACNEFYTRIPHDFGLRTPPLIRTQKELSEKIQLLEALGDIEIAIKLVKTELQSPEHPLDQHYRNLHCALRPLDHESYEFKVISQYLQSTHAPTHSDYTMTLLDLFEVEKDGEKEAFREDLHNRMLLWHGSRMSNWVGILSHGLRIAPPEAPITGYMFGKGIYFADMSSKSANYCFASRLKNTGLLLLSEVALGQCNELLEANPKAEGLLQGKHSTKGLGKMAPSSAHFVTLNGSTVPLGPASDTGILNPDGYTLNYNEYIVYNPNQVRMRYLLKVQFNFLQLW
Description: as §6

EC50 (DLD-1 BRCA2(−/−) cells) | EC50 [1] | Papp A→B at 2 h, 10 μM (MDR1) | Papp B→A at 2 h, 10 μM (MDR1) | efflux ratio at 2 h, 10 μM (MDR1) | HLM Clh [2] | Papp A→B at 2 h, 10 μM (BCRP) | Papp B→A at 2 h, 10 μM (BCRP) | efflux ratio at 2 h, 10 μM (BCRP) | IC50 (PARP1) | IC50 (PARP2) | Structure (SMILES) | HHEP Clh [3] | EC50 (DLD-1 parental cells)
1.6 nM | 0.4 nM | 6.6 ×10⁻⁶ cm/s | 32.3 ×10⁻⁶ cm/s | 5 | 7.2 mL/min/kg |  |  |  |  |  | CNC(=O)c1ccc(N2CCN(Cc3cc(F)c4c5c(c(=O)[nH]c4c3)COC5)CC2)c(F)n1 [Comp. Ex. 3, 6-fluoro-5-(4-((9-fluoro-4-oxo-1,3,4,5-tetrahydrofuro[3,4-c]quinolin-7-yl)methyl)piperazin-1-yl)-N-methylpicolinamide, reference compound] | 7.1 mL/min/kg | 
4.1 nM | 2.9 nM | 15.9 ×10⁻⁶ cm/s | 29.6 ×10⁻⁶ cm/s | 1.87 |  | 21.7 ×10⁻⁶ cm/s | 20.4 ×10⁻⁶ cm/s | 0.95 |  |  | CNC(=O)c1ccc(N2CCN(Cc3ccc4c([nH]c(=O)c5ccnn54)c3F)CC2)c(F)n1 [Example 1, 6-fluoro-5-[4-({6-fluoro-4-oxo-5H-pyrazolo[1,5-a]quinoxalin-7-yl}methyl)piperazin-1-yl]-N-methylpyridine-2-carboxamide] |  | > 30000 nM
6.5 nM | 4.6 nM |  |  |  |  |  |  |  | 56 nM | > 100000 nM | [2H]C([2H])([2H])NC(=O)c1ccc(N2CCN(Cc3ccc4c([nH]c(=O)c5ccoc54)c3F)CC2)c(F)n1 [Example 30] |  | 
3.2 nM | 1.6 nM | 19.4 ×10⁻⁶ cm/s | 31.4 ×10⁻⁶ cm/s |  | <4 mL/min/kg | 26.7 ×10⁻⁶ cm/s | 24.3 ×10⁻⁶ cm/s |  |  |  | CNC(=O)c1ccc(N2CCN(Cc3ccc4c5c(c(=O)[nH]c4c3F)CCO5)CC2)c(F)n1 [Example 9, 6-fluoro-5-[4-({6-fluoro-4-oxo-2H,3H,5H-furo[3,2-c]quinolin-7-yl}methyl)piperazin-1-yl]-N-methylpyridine-2-carboxamide] | <3.3 mL/min/kg | > 30000 nM
1.7 nM | 0.7 nM | 5.7 ×10⁻⁶ cm/s | 29 ×10⁻⁶ cm/s | 5.1 | 4.2 mL/min/kg |  |  |  |  |  | CNC(=O)c1ccc(N2CCN(Cc3ccc4c5c(c(=O)[nH]c4c3)CCO5)CC2)c(Cl)n1 [Comp. Ex. 2, 6-chloro-N-methyl-5-[4-({4-oxo-2H,3H,5H-furo[3,2-c]quinolin-7-yl}methyl)piperazin-1-yl]pyridine-2-carboxamide, reference compound] | 6.6 mL/min/kg | 
1.9 nM | 1.2 nM | 15.2 ×10⁻⁶ cm/s | 22.7 ×10⁻⁶ cm/s | 1.5 |  | 21.1 ×10⁻⁶ cm/s | 18.2 ×10⁻⁶ cm/s | 0.87 | 6.2 nM | > 100000 nM | [2H]C([2H])([2H])NC(=O)c1ccc(N2CCN(Cc3ccc4c([nH]c(=O)c5ccnn54)c3F)CC2)c(F)n1 [Example 18] |  | > 30000 nM
0.99 nM | 1.1 nM |  |  |  |  |  |  |  | 40 nM | > 100000 nM | [2H]C([2H])(c1ccc2c([nH]c(=O)c3c(F)cnn32)c1F)N1CCN(c2ccc(C(=O)NC)nc2F)CC1 (single isomer, unassigned) [Example 34] |  | 
2 nM | 0.6 nM | 7.5 ×10⁻⁶ cm/s | 39.8 ×10⁻⁶ cm/s |  | <4 mL/min/kg |  |  |  |  |  | CNC(=O)c1ccc(N2CCN(Cc3ccc4c5c(c(=O)[nH]c4c3)CCO5)CC2)c(C)n1 [Comp. Ex. 1, N,6-dimethyl-5-[4-({4-oxo-2H,3H,5H-furo[3,2-c]quinolin-7-yl}methyl)piperazin-1-yl]pyridine-2-carboxamide, reference compound] | <3.3 mL/min/kg | 
0.96 nM | 0.79 nM |  |  |  |  |  |  |  | 11 nM | > 100000 nM | [2H]C([2H])([2H])NC(=O)c1ccc(N2CCN(Cc3ccc4c([nH]c(=O)c5c(F)cnn54)c3F)CC2)c(F)n1 (single isomer, unassigned) [Example 33] |  | 
